Holding throughout (type): cell-based
Holding throughout (details): mean ± SD

One assay deals with T1, mouse SGLT1 (Mus musculus, UniProt Q8C3K6).
T1 construct: expressed in transfected cells; host or cells: HEK293 (per abstract)
T1 sequence (Q8C3K6 1-665): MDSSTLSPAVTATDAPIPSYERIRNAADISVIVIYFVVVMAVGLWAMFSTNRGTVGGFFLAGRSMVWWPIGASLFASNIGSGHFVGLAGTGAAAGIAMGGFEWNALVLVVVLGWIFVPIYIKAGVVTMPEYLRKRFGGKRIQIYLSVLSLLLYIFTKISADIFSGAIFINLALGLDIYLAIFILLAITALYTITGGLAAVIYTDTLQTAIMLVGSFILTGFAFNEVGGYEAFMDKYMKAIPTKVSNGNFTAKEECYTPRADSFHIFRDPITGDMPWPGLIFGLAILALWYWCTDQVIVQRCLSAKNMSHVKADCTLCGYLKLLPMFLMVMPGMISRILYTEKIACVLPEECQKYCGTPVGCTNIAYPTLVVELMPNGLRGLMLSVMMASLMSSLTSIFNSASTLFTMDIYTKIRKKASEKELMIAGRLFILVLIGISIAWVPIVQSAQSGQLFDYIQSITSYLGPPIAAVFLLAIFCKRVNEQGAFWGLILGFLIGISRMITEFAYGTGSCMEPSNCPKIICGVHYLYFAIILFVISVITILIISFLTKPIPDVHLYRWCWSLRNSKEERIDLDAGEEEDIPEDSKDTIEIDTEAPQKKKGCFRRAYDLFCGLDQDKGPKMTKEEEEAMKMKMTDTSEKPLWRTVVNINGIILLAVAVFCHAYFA
The assay is described as follows: 14C-AMG uptake assay, HEK293 cells expressing mouse SGLT1. An excerpt:
(§1) Methods for generating cell lines expressing mouse, rat, and dog SGLT1 and SGLT2 are published (Powell et al. [2013b], [2014]). Full-length coding sequence of human SGLT1 (NP_000334) and human SGLT2 (NP_003032.1) with an HA-tag at the N-terminus were cloned into the mammalian expression vector pIRESpuro2 (Clontech, Mountain View, CA). HEK293 cells (ATCC, Manassas, VA) were transfected with the pIRESpuro2 vector containing human SGLT1 or SGLT2 and bulk stable cell lines were selected in the presence of 0.5 μg/mL of puromycin.
(§2) Cell lines expressing SGLT1 or SGLT2 were plated into poly-D-lysine-coated 384-well plates, and culture overnight in cell growth medium. Cells were washed, and then incubated in uptake buffer ([…], […] KCl, […] CaCl2, […] MgCl2, […] HEPES/Tris, 1 mg/mL of bovine serum albumin, pH7.4) containing [^14C]α-methylglucopyranoside (^14C-AMG), a nonmetabolizable glucose analog specific for sodium-dependent glucose transporters (Wright and Turk [2004]). The inhibition of SGLT1 or SGLT2 was determined by measuring SGLT1/2-mediated ^14C-AMG uptake in the presence of increasing compound concentrations of LP-925219. […] Standard sigmoidal dose–response model curves were fitted, and the IC50 value was computed as the LP-925219 concentration that inhibited the ^14C-AMG uptake by 50% between baseline and maximum uptake.

The next assay has as its target T2, mouse SGLT2 (Mus musculus, UniProt Q923I7).
T2 construct: expressed in transfected cells; host or cells: HEK293 (per abstract)
T2 sequence (Q923I7 1-670): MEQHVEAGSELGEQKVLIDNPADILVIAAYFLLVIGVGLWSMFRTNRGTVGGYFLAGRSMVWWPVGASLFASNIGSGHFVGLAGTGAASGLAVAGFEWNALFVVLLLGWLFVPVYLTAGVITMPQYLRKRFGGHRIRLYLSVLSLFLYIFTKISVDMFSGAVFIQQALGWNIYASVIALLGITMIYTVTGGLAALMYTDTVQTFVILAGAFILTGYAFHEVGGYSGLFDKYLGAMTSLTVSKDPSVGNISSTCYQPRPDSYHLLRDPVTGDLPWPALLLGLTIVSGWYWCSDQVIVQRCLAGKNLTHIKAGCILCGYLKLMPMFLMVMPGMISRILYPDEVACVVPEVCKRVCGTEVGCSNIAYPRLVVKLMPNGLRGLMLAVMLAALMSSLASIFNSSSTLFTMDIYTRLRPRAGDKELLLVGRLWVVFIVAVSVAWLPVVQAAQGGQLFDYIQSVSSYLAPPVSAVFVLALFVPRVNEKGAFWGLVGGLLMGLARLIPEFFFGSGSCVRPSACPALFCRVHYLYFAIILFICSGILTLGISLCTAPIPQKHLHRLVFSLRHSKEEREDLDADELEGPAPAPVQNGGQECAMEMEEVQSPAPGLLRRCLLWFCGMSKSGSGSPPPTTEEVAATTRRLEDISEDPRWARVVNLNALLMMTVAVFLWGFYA
The assay is described as follows: 14C-AMG uptake assay, HEK293 cells expressing mouse SGLT2.
Source text: as §1, §2

The target of the next assay is T3, rat SGLT1 (Rattus norvegicus, UniProt P53790).
T3 construct: expressed in transfected cells; host or cells: HEK293 (per abstract)
T3 sequence (P53790 1-665): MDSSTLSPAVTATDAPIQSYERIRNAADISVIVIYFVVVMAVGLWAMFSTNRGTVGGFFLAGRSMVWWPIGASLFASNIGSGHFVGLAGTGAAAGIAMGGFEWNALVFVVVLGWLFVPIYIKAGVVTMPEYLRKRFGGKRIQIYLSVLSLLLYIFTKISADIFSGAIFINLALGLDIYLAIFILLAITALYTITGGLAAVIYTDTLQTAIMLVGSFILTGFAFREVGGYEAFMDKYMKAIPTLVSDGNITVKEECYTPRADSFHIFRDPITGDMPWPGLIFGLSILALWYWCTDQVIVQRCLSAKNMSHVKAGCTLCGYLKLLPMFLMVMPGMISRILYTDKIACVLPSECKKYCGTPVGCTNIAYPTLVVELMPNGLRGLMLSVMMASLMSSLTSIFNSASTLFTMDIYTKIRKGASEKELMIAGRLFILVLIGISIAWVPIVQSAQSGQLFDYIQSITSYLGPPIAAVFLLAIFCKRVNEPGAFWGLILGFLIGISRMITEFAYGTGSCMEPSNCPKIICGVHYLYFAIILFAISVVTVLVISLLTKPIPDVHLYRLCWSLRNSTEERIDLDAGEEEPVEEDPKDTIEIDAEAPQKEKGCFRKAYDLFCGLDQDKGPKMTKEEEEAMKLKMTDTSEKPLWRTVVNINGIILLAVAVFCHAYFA
Put plainly: 14C-AMG uptake assay, cells expressing rat SGLT1.
Source text: as §1, §2

Structures are written as SMILES.

Regarding `COc1ccc(Cc2cc([C@@H]3O[C@H](SC)[C@@H](O)[C@H](O)[C@H]3O)ccc2Cl)cc1` [LP-925219], the IC50 (usually the concentration that gives 50% inhibition) at mouse SGLT1 was found to be 22.6 ± 1 nM; on mouse SGLT2, 0.5 ± 0.1 nM; on rat SGLT1, 36.7 ± 7.2 nM.

These data come from paper PMC4448982, “LP-925219 maximizes urinary glucose excretion in mice by inhibiting both renal SGLT1 and SGLT2” (Pharmacology Research & Perspectives, 2015).
